Data as given in paper PMC5405074, “Receptor-Mediated Melanoma Targeting with Radiolabeled α-Melanocyte-Stimulating Hormone: Relevance of the Net Charge of the Ligand” (Frontiers in Endocrinology, 2017).
Like-named read-outs stand apart in the source and are kept apart here. Non-standard residues stand in square brackets, D forms with d. Residues, ends and D or L forms follow the SMILES beside them. *: point of attachment. DOTA = O=C(O)CN1CCN(CC(=O)O)CCN(CC(=O)*)CCN(CC(=O)O)CC1; pY = N[C@@H](Cc1ccc(OP(=O)(O)O)cc1)C(=O)O; Nle = CCCC[C@H](N)C(=O)O

What was measured:
[1] = molecular target: T1, MC1R (B16-F1 cells) (Mus musculus, UniProt Q01727); assay: Competition binding assay with [^125I]-NDP-MSH, mouse B16-F1 melanoma cells
T1 construct: endogenous in cells; host or cells: mouse B16-F1 melanoma cells
T1 sequence (Q01727 whole entry): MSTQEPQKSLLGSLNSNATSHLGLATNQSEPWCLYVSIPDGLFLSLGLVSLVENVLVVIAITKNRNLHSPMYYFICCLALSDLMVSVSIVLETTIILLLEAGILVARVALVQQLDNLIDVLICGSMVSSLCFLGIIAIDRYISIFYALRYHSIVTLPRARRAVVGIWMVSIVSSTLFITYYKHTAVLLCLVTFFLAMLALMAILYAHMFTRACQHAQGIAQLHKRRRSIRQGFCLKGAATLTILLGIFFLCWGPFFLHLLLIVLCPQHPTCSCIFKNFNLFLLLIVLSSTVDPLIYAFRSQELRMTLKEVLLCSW
Method: (§1) Triplicates of 100-µL volumes of B16-F1 or HBL cell suspensions adjusted to 4 × 10^6/mL were incubated in 96-well U-bottom microplates (Falcon 3077). The binding medium consisted of MEM with Earle’s salts, 0.2% BSA, and 0.3 mM 1,10-phenanthroline. This binding medium was called mouse binding medium (MBM). Triplicates of competitor peptide solution (50 µL) yielding final concentrations ranging from 1 × 10^−6 to 1 × 10^−12 M were added. [^125I]NDP-MSH (50,000 cpm) in 50 µL was finally added to each well. The plates were incubated at 15°C for 3 h for B16-F1 cells and at 37°C for 2 h for HBL cells. The incubation was stopped by covering the plates with ice for 10 min. A cell harvester was used to collect cell-bound radioactivity on filters (Packard Unifilter-96 GF/B). The collected radioactivity was counted on a TopCount scintillation counter (Packard) after addition of 50 µL Microscint-20 scintillation cocktail (Perkin Elmer). The IC50 values were calculated with the Prism 6 software (GraphPad Software Inc., San Diego CA, USA).
(§2) The binding affinity of the peptides to MC1R was assessed by competition binding assays using [^125I]-NDP-MSH as radioligand and both murine B16-F1 and human HBL cells.

[2] = molecular target: T2, MC1R (HBL cells) (Homo sapiens, UniProt Q01726); assay: Competition binding assay with [^125I]-NDP-MSH, human HBL melanoma cells
T2 construct: endogenous in cells; host or cells: human HBL melanoma cell line
T2 sequence (Q01726 whole entry): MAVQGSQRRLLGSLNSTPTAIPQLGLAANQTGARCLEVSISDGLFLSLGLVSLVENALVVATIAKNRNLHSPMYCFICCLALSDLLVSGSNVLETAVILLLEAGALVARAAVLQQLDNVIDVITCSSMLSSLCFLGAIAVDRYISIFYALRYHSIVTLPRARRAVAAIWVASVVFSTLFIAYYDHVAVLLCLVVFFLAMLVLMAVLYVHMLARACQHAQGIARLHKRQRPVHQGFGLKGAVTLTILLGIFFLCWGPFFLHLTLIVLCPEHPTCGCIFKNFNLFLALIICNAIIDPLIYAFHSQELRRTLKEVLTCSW
Method: as §1, §2

[3] = Biodistribution of ^111In-labeled peptides in B16-F1 melanoma-bearing mice; format: in vivo, mouse (B6D2F1); details: female, iv, total radioactivity, ^111In-labeled peptide, 185 kBq i.v., mean ± SEM of three experiments, n = 5 animals each
Method: (§3) About 5 × 10^5 B16-F1 cells were implanted subcutaneously to female B6D2F1 mice (C57BL/6 × DBA/2F1 hybrids; breeding pairs obtained from IFFA-CREDO, France). Seven days later, 185 kBq of ^111In-labeled ligand in 200 µL PBS/0.1% BSA were injected intravenously into the lateral tail vein of each mouse. Control mice were injected with a mixture of the tracer and 50 µg α-MSH to determine the non-specific uptake of radioligand. The animals were sacrificed 4, 24, and 48 h postinjection, dissected, and the tissues of interest collected, rinsed of excess blood, and weighed. The radioactivity emitted by each organ was measured in a γ-counter to determine the tissue uptake as percentage of the injected dose (ID) per gram of tissue. The total of injected radioactivity per animal was determined by extrapolation from the counts of a standard collected from the injection solution for each animal. Urine samples were collected at 10, 15, and 20 min and 4 h after injection and kept frozen at −80°C until use. Urine (1 vol) was mixed with methanol (2 vol) to precipitate proteins, and the supernatant was analyzed by RP-HPLC/γ-detection, as described in Ref. ([12]).
(§4) Results are expressed as means ± SEM, unless otherwise stated. The statistical evaluation of data was performed using the one- or two-way ANOVA test. When significant overall effects were obtained by ANOVA, multiple comparisons were made with the Bonferroni correction. P < 0.05 was considered statistically significant. The area under the curve (AUC) was calculated with the GraphPad Prism 6 software for the indicated period of time, using the mean tissue uptake value at each time point.

[4] = tested on: B16-F1 tumor-bearing mice; assay: as above; format: in vivo, mouse (B6D2F1)
Method: as §3, §4

[5] = B6D2F1 (C57BL/6 × DBA/2F1 hybrids), mouse, blood, read-out: Blood uptake
[6] = B6D2F1 (C57BL/6 × DBA/2F1 hybrids), mouse, muscle, read-out: Muscle uptake
[7] = B6D2F1 (C57BL/6 × DBA/2F1 hybrids), mouse, skin, read-out: Skin uptake
[8] = B6D2F1 (C57BL/6 × DBA/2F1 hybrids), mouse, tumor, read-out: Tumor uptake
[9] = B6D2F1, mouse, bone, read-out: Bone uptake
[10] = B6D2F1, mouse, heart, read-out: Heart uptake
[11] = B6D2F1, mouse, kidney, read-out: Kidney uptake
[12] = B6D2F1, mouse, liver, read-out: Liver uptake
[13] = B6D2F1, mouse, lung, read-out: Lung uptake
[14] = B6D2F1, mouse, pancreas, read-out: Pancreas uptake
[15] = B6D2F1, mouse, small intestines, read-out: Small intestines uptake
[16] = B6D2F1, mouse, spleen, read-out: Spleen uptake
[17] = B6D2F1, mouse, stomach, read-out: Stomach uptake
[18] = ^111In-labeled peptide, 185 kBq i.v., 4 h, mean ± SEM of three experiments, n = 5 animals each

## CCCC[C@H](NC(=O)[C@H](Cc1ccc(OP(=O)(O)O)cc1)NC(=O)CNC(=O)CN1CCN(CC(=O)O)CCN(CC(=O)O)CCN(CC(=O)O)CC1)C(=O)N[C@@H](CC(=O)O)C(=O)N[C@@H](Cc1c[nH]cn1)C(=O)N[C@H](Cc1ccccc1)C(=O)N[C@@H](CCCNC(=N)N)C(=O)N[C@@H](Cc1c[nH]c2ccccc12)C(N)=O [DOTA-Phospho-MSH2-9, DOTA-Gly-Tyr(P)-Nle-Asp-His-D-Phe-Arg-Trp-NH2] ({DOTA}-G[pY][Nle]DH[dF]RW-NH2)
[1]
  IC50: 2.32 ± 0.8 nM
[2]
  IC50: 3.03 ± 0.59 nM
[3]; [5]
  tissue uptake at 4 h: 0.02 %ID/g
  tissue uptake at 24 h: 0.01 %ID/g
[3]; B6D2F1 (C57BL/6 × DBA/2F1 hybrids), mouse, bone, read-out: Bone uptake
  tissue uptake at 48 h: 0.06 ± 0.01 %ID/g
[3]; [6]
  tissue uptake at 4 h: 0.02 %ID/g
  tissue uptake at 24 h: 0.02 %ID/g
  tissue uptake at 48 h: 0.02 %ID/g
[3]; [7]
  tissue uptake at 4 h: 0.12 ± 0.03 %ID/g
  tissue uptake at 24 h: 0.07 ± 0.02 %ID/g
  tissue uptake at 48 h: 0.08 ± 0.02 %ID/g
[3]; [8]
  tissue uptake at 24 h: 2.92 ± 0.12 %ID/g
  tissue uptake at 48 h: 1.21 ± 0.18 %ID/g
[3]; [9]
  tissue uptake at 4 h: 0.08 ± 0.01 %ID/g
  tissue uptake at 24 h: 0.11 ± 0.02 %ID/g
[3]; [10]
  tissue uptake at 4 h: 0.04 %ID/g
  tissue uptake at 24 h: 0.03 %ID/g
  tissue uptake at 48 h: 0.03 %ID/g
[3]; [11]
  tissue uptake at 24 h: 1.88 ± 0.11 %ID/g
  tissue uptake at 48 h: 1.04 ± 0.07 %ID/g
[3]; [12]
  tissue uptake at 4 h: 0.2 ± 0.01 %ID/g
  tissue uptake at 24 h: 0.16 ± 0.02 %ID/g
  tissue uptake at 48 h: 0.12 ± 0.01 %ID/g
[3]; [13]
  tissue uptake at 4 h: 0.07 ± 0.02 %ID/g
  tissue uptake at 24 h: 0.04 %ID/g
  tissue uptake at 48 h: 0.03 %ID/g
[3]; [14]
  tissue uptake at 4 h: 0.05 ± 0.01 %ID/g
  tissue uptake at 24 h: 0.03 %ID/g
  tissue uptake at 48 h: 0.03 %ID/g
[3]; [15]
  tissue uptake at 4 h: 0.11 ± 0.03 %ID/g
  tissue uptake at 24 h: 0.06 %ID/g
  tissue uptake at 48 h: 0.06 %ID/g
[3]; [16]
  tissue uptake at 4 h: 0.11 ± 0.01 %ID/g
  tissue uptake at 24 h: 0.1 ± 0.01 %ID/g
  tissue uptake at 48 h: 0.09 ± 0.01 %ID/g
[3]; [17]
  tissue uptake at 4 h: 0.17 ± 0.08 %ID/g
  tissue uptake at 24 h: 0.16 ± 0.02 %ID/g
  tissue uptake at 48 h: 0.07 %ID/g
[4]; AUC (4–48 h) or overall comparison
  Tumor-to-kidney ratio compared with other peptides (in words): best tumor-to-kidney ratio of all linear MSH peptides so far investigated
[4]; [18]
  Kidney uptake: 2.68 ± 0.18 %ID/g
  Tumor uptake: 7.33 ± 0.47 %ID/g
